The text below walks through data of ChEMBL document CHEMBL1201862, “PubChem BioAssay data set” (2004).

The structures appear in SMILES notation. Activity calls are given as the source filed them.

System in the first test: not listed separately
The experiment in a line: inhibitors of firefly luciferase expression or activity, dose response, H4 neuroglioma cells, luminescence (AID 1990). Format: functional, cell-based.
Conditions: not given
In the case of `CCCCCc1cc(=O)oc2c(C(CCN3CCCC(C)C3)c3cc(OC)c(OC)c(OC)c3)c(OC)cc(OC)c12` (stereo not drawn), the EC50 is > 120 µM (not active).

System in another test: not listed separately
Briefly: Luminescence Cell-Based Dose Response HTS to Identify Inhibitors of 5'UTR Stem-Loop Driven Prion Protein mRNA Translation in H4 Neuroglioblastoma Cells. [Related pubchem assays: 1827 (Project Summary), 1813 (Primary HTS)].
Conditions: not given
Format: functional.
For `CCCCCc1cc(=O)oc2c(C(CCN3CCCC(C)C3)c3cc(OC)c(OC)c(OC)c3)c(OC)cc(OC)c12` (stereo not drawn), the EC50 was > 120 µM (not active).

System in another test: not listed separately
Briefly: off-target signal loss in HeLa-CEM21 co-culture – HeLa F-luc CTL cells, cherry-picked, counter-screen for HIV-1 Env fusion inhibitor project, dose response (AID 652040).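 Note: potency for signal decrease marking cytotoxic or nonspecific inhibition.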 Format: functional, cell-based.
Conditions: not given
For orientation: A counterscreen serves to expose hits that act by an unwanted route or on another target.
On to `Cc1cc(Cl)ccc1OCC(=O)NNC(=O)C1CSC2(C)CCC(=O)N12` (stereo not drawn), for which the AC50 was 39.8 µM (active).

System in a further test: not listed separately
Briefly: inhibitors of SNCA 5'UTR-driven reporter translation, confirmation, H4 neuroglioma cells, luminescence (AID 1988). The class given is functional, cell-based.
Conditions: not given
For `CCCCCc1cc(=O)oc2c(C(CCN3CCCC(C)C3)c3cc(OC)c(OC)c(OC)c3)c(OC)cc(OC)c12` (stereo not drawn), the EC50 is listed as > 120 µM (not active).

In the next test the target is T1, Heat shock factor protein 1 (Mus musculus, UniProt P38532).
T1 sequence (P38532 whole entry): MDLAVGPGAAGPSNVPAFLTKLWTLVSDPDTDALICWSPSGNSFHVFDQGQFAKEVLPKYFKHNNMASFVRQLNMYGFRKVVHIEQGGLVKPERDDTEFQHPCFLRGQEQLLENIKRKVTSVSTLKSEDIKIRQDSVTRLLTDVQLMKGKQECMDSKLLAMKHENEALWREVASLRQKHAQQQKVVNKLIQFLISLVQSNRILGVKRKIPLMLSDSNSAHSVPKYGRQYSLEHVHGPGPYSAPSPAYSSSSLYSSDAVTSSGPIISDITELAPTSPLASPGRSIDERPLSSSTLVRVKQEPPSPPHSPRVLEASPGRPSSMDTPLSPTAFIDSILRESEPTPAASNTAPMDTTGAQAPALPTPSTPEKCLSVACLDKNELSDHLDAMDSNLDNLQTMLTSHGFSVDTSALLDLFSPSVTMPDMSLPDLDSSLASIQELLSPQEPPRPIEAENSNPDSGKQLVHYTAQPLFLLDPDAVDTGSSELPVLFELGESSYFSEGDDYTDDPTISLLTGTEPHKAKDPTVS
Briefly: HSF1 potentiators in luciferase reporter cells, confirmation, cell-based, NIH3T3, luminescence, dose retest (AID 435004).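 Note: stress induced by proteasome inhibitor MG132 added 30 min after compound; luciferase reporter driven by HSF1 response element in NIH3T3 cells; actives raise luminescence as potentiators of the MG132 stress response.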 Format: functional.
Conditions: not given
In general terms: Reporter assays use an easily measured gene product as a stand-in for the process of interest.
Turning to `Cc1cccc(-c2cc(C(=O)Nc3ccncc3)c3ccccc3n2)c1`, the EC50 is 43.1 µM (active).

For `Oc1ccc(-c2cnc(-c3ccc(O)cc3)nc2)cc1`, the EC50 was 4.99 µM (active).

For the compound `COc1ccc(NC(=O)CSc2nnc(Cn3cnc([N+](=O)[O-])n3)n2C)cc1`, the EC50 was > 260 µM (inactive).

On to `CC(C)NC(=O)NC(=O)COc1ccc(Br)cc1Br`, for which the EC50 was > 260 µM (inactive).

Turning to `COc1cc2nc(S)nc(NCc3ccc(Cl)cc3)c2cc1OC`, the EC50 is > 260 µM (inactive).

For `COc1cccc(CNc2ccc(Br)cn2)c1O`, the EC50 was 34.1 µM (active).

Turning to `Nn1cnnc1N/N=C/c1cc([N+](=O)[O-])c(Cl)cc1Cl`, the EC50 was > 260 µM (inactive).

In another test the target is Large T antigen (Simian virus 40, UniProt P03070). Format: functional, Betapolyomavirus macacae.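 Note: Confirmatory-stage PubChem screen for compounds that inhibit SV40 T antigen.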
Sequence of Large T antigen (P03070 whole entry): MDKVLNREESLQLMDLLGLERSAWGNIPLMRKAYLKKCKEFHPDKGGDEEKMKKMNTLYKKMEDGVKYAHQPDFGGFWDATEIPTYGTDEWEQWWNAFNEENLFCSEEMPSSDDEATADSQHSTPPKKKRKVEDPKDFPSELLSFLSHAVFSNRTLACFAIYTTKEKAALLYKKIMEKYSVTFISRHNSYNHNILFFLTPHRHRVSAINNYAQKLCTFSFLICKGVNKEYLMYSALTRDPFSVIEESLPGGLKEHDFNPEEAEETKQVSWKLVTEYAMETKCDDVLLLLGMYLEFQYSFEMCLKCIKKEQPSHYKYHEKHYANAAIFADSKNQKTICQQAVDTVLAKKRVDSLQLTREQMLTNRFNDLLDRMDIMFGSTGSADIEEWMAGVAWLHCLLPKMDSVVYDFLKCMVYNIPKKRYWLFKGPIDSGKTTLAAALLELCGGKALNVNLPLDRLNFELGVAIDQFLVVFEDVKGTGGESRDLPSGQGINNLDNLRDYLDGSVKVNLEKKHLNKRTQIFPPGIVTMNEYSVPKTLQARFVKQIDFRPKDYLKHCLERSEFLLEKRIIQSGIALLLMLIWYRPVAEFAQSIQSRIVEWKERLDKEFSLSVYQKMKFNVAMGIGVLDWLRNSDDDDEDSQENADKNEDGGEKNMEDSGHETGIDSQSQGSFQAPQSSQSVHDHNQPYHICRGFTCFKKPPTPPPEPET
Conditions: not given
As to `ClCC1=Nc2cccc3cccc(c23)N1`, the IC50 was 10 µM (active).

As for `O=C(NC(=S)Nc1ccc(O)cc1)c1cncc(Br)c1`, the IC50 is 6.41 µM (active).

As to `COc1cc(C(c2c(C)n[nH]c2O)c2c(C)n[nH]c2O)ccc1OC(=O)c1cccc([N+](=O)[O-])c1`, the IC50 was > 100 µM (active).

As for `COc1ccc(CN2C(=O)NC(=O)/C(=C/c3ccoc3)C2=O)cc1`, the IC50 was 36.9 µM (active).

Turning to `COc1cc(/C=N/n2cnnc2)ccc1OC(=O)c1ccncc1`, the IC50 was 75 µM (active).

System in the next test: not listed separately
The experiment in a line: Luminescence Cell-Based Dose Retest to Confirm Inhibitors of Cancer Stem Cells. [Related pubchem assays (depositor defined):AID2717, AID2721]. Format: functional. Conditions: Homo sapiens.
Turning to `Oc1ccc(-c2cnc(-c3ccc(O)cc3)nc2)cc1`, the AC50 was 0.342 µM (active).

Regarding `CCCCCc1cc(=O)oc2c(C(CCN3CCCC(C)C3)c3cc(OC)c(OC)c(OC)c3)c(OC)cc(OC)c12` (stereo not drawn), the AC50 is 6.25 µM (active).

A further test deals with T2, Rac GTPase-activating protein 1 (Homo sapiens, UniProt Q9H0H5).
T2 sequence (Q9H0H5 whole entry): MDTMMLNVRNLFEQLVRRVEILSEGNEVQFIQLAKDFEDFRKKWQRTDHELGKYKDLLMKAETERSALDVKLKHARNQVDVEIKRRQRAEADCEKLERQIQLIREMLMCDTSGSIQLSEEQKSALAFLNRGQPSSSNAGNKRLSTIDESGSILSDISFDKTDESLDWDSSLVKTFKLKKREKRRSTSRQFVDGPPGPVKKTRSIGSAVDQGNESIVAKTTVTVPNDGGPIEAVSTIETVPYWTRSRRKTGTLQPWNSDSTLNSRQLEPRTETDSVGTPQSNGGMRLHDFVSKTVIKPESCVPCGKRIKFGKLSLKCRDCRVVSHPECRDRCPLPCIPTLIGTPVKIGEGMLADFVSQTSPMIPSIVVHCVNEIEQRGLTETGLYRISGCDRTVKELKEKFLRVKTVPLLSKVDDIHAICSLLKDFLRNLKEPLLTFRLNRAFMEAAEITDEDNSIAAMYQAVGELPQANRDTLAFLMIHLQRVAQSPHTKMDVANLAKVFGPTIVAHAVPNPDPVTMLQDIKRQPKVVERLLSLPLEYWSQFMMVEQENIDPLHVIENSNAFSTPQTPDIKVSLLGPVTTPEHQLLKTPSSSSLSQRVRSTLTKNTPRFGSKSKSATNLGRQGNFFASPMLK
The experiment in a line: MgcRacGAP GTPase-activating activity inhibitors, confirmation, biochemical, ADP Hunter fluorescence, primary and confirmatory (AID 624330). Format: functional.
Conditions: not given
For `COc1cc(/C=N/n2cnnc2)ccc1OC(=O)c1ccncc1`, the IC50 is 31 µM (active).

For another test, the system named is INS1. Briefly: beta cell apoptosis inhibitors, cytokine rescue, dose response, luminescence, retest (AID 449756).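 Note: cell death triggered by IL-1 beta plus TNF-alpha plus IFN-gamma mixture; protective hits raise ATP signal compared with cytokine alone wells.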 Format: functional, cell-based. The settings on record: Rattus norvegicus.
As for `Fc1ccc(CN(Cc2ccccc2)C(c2cccs2)c2nnnn2C2CCCCC2)cc1` (stereo not drawn), the AC50 is 6.47 µM (active).

With `CC(=O)c1c(C)oc2ccc(N(C(C)=O)S(=O)(=O)c3cccc4cccnc34)cc12`, the AC50 is 3.85 µM (active).

As to `CCCCCc1cc(=O)oc2c(C(CCN3CCCC(C)C3)c3cc(OC)c(OC)c(OC)c3)c(OC)cc(OC)c12` (stereo not drawn), the AC50 was 8.07 µM (active).

In the case of `COc1ccc(O)c(/C=N/NC(=O)c2cccc(N3CCCC3=O)c2)c1`, the AC50 is 3.55 µM (active).

A word on the EC50: it is the concentration at which the effect is half-maximal. Broadly, the AC50 is the concentration giving half of the maximal activity seen. As a reminder, the IC50 is the concentration needed to halve the response being measured.
